# Data: patent US8207310B2, “Antibodies to proteolysis inducing factor (PIF) receptor and methods of use thereof” (Ashton University, priority 2006, dated 2012)
# “Also recorded” adds a separate entry of the source.
# Tested on: PIF receptors on C2C12 membranes
# Assay: Competitive binding of [35S]PIF to C2C12 membranes
# Parameters: species or system mouse
# Settings: result in words
# Procedure: Competitive binding of [^35S]PIF C2C12 membranes (200 μg) in PBS (250 μl) were incubated with 1, 5, 10, 50, 100, 500 or 1000 ng of either monoclonal antibody, chondroitin, dermatan or heparan sulfate and 20 nM (480 ng) of [^35S]PIF overnight at 4° C. The bound radioactivity was determined from the radioactivity in the pellet obtained by centrifugation at 13,000 g for 5 min.
# The Kaff was determined according to a modification (Clark, B. R. and Todd, C. W. Avidin as a precipitant for biotin-labelled antibody in a radioimmunoassay for carcinoembryonic antigen. Anal. Biochem., 121: 257-262, 1982.) of the method of Muller (Muller, R.
# Calculation of average antibody affinity in anti-hapten sera from data obtained by competitive radioimmunoassay. J. Immunol. Methods, 34: 345-352, 1980.). Kaff=^1/(It−Tt)(1−[…]+0.5b^2) where It is the inhibitor concentration at 50% inhibition of PIF binding; Tt the total PIF concentration; b the fraction of PIF bound in the absence of inhibitor.
row,Substance,inhibition of binding of PIF to receptors on C2C12 membranes
1,chondroitin sulfate,competitive inhibition; also recorded: specifically inhibited
2,heparan sulfate,not
